This note sets out measurements from patent publication US20230310505A1, “COMPOSITION FOR PREVENTING HEARING LOSS CONTAINING MESENCHYMAL STEM CELLS OR EXOSOMES DERIVED THEREFROM AS ACTIVE INGREDIENT” (UNIVERSITY INDUSTRY FOUNDATION, YONSEI UNIVERSITY WONJU …, priority 2020, published 2023).

The test concerns outer hair cells (OHC) and inner hair cells (IHC) of cochlear explants. Description: Ototoxic hearing loss induction: cisplatin treatment of cochlear explants, hair cell viability by immunofluorescence. In kind it is cell-based, ICR mice. The conditions noted are these: cisplatin for 24 hours. As for the experimental part:
It is also known that damage to outer hair cells (OHC) and inner hair cells (IHC) of the cochlea leads to hearing loss.
After completion of the treatment, the cochlear explants were fixed with PBS containing 4% formalin for 15 minutes and washed with PBS three times. Next, after incubation with PBS containing 0.1% Triton X-100 for 10 minutes, blocking was performed with PBS containing 4% BSA for 30 minutes. Thereafter, incubation was performed for 1 hour with a rabbit anti-mouse myosin 7a primary antibody (1:400, abcam). After washing with PBS three times, incubation was performed for 1 hour with goat anti-rabbit IgG (H+L) Alexa Fluor 488 antibody (1:500, abcam) with Phalloidine Alexa Fluor 647 (1:1000, abcam). After washing with PBS, the coverslip was transferred to a slide and a drop of Fluoroshield with DAPI (Sigma, USA) was gently applied to the coverslip. The coverslip was sealed with clear nail polish and observed under a fluorescence microscope (FIG. 1B), and the number of OHCs and IHCs was measured to calculate the cell viability (FIG. 1C).

`N.N.[Cl][Pt][Cl]` [cisplatin]: it took 100 µM to reach a half-maximal effect (apical turn) (EC50); the EC50 (as a rule, the concentration needed to bring the measured effect to its halfway point) (middle turn and basal turn) was determined as 80 µM.
